Holding throughout (type): in vivo
Test [1] has as its system Rhipicephalus (Boophilus) microplus larvae (strain Parkhurst, resistant against synthetic pyrethroids). Nature of the test: Rhipicephalus (Boophilus) microplus in-vitro contact test, larval cattle tick. As to conditions: after 48 hours, read-out: efficacy (larvae dead or moribund); for pest or weed control at 1 µg/cm2, 100 g/ha: 1 μg/cm^2 (=100 g/ha); for pest or weed control at 5 µg/cm2, 500 g/ha: 5 μg/cm^2 (=500 g/ha). How it is done:
Rhipicephalus (Boophilus) microplus—In-Vitro Contact Tests Larval Cattle Tick (Strain Parkhurst, Resistant Against Synthetic Pyrethroids)
9 mg compound is solved in 1 mL acetone and diluted with acetone to the desired concentration. […] the test solution is filled in 25 mL glass test tubes and homogeneously distributed on the inner walls by rotation and tilting on a shaking device (2 h at 30 rpm). With a compound concentration of 900 ppm, an inner surface of 44.7 cm^2 and a homogeneous distribution, a dose of 5 μg/cm^2 is achieved.
After the solvent has evaporated, each test tube is filled with 20-50 cattle tick larvae (Rhipicephalus microplus), closed with a perforated lid and incubated in a horizontal position at 85% relative humidity and 27° C. in an incubator. After 48 hours efficacy is determined. The larvae are patted on the ground of the tubes and negative geotactic behaviour is recorded.
An efficacy of 100% means all larvae are dead or moribund; 0% means no larvae are dead or moribund.

Test [2] deals with fall armyworm larvae (Spodoptera frugiperda). Nature of the test: Spodoptera frugiperda spray test. Conditions: 168 h, maize leaf sections, after 7 days. On the procedure: Spodoptera fruaiperda—Spray Test
Solvent: 78.0 parts by weight acetone • 1.5 parts by weight dimethylformamide
(§1) Emulsifier: alkylarylpolyglycol ether
To produce a suitable preparation of active compound, 1 part by weight of active compound is mixed with the stated amount of solvents and is diluted with water, containing an emulsifier concentration of 1000 ppm, to the desired concentration. Further test concentrations are prepared by dilution with emulsifier containing water.
Maize (Zea mays) leaf sections are sprayed with a preparation of the active ingredient of the desired concentration. Once dry, the leaf sections are infested with fall armyworm larvae (Spodoptera frugiperda).
After 7 days mortality in % is determined. 100% means all caterpillars have been killed and 0% means none of the caterpillars have been killed.

The subject of test [3] is larvae of the banded cucumber beetle (Diabrotica balteata). Put plainly: Diabrotica balteata spray test. Conditions: 168 h, after 7 days, read-out: efficacy (seedling growth); for pest or weed control at 6.4 µg/disc, 20 g/ha: 20 g/ha (=6.4 μg/well); for pest or weed control at 32 µg/disc, 100 g/ha: 100 g/ha (=32 μg/well). On the procedure: Diabrotica balteata—Spray Test
Solvent: 78.0 parts by weight of acetone • • 1.5 parts by weight of dimethylformamide
as §1
To produce a suitable preparation of active compound, 1 part by weight of active compound is mixed with the stated amount of solvent, and the concentrate is diluted with water, containing an emulsifier concentration of 1000 ppm, to the desired concentration. Further test concentrations are prepared by dilution with emulsifier containing water.
Soaked wheat seeds (Triticum aestivum) are placed in a multiple well plate filled with agar and some water and are incubated for 1 day to germinate (5 seeds per well). The germinated wheat seeds are sprayed with a test solution containing the desired concentration of the active ingredient. Afterwards each unit is infected with 10-20 larvae of the banded cucumber beetle (Diabrotica balteata).
After 7 days efficacy in % is determined. 100% means all the seedlings have grown up like in the untreated, uninfected control; 0% means none of the seedlings have grown.

Take `Cc1cnc(C(C)NC(=O)c2cc(C(F)(F)F)cc(C(F)(F)F)c2)c(-c2ncc(C(=O)N(C)CC3CC3)s2)n1` (racemic) [Example I-125, (rac)-2-(3-{1-[3,5-Bis(trifluoromethyl)benzamido]ethyl}-6-methylpyrazin-2-yl)-N-(cyclopropylmethyl)-N-methyl-1,3-thiazole-5-carboxamide]: in test [1], the pest or weed control at 1 µg/cm2, 100 g/ha amounted to 100% and the pest or weed control at 5 µg/cm2, 500 g/ha was 100%. This molecule registered a mortality at 100 g/ha in test [2] of 100%.
As to `CC(NC(=O)c1cc(C(F)(F)F)cc(C(F)(F)F)c1)c1nccnc1-c1ncc(C(=O)N2CCOCC2)s1` (racemic) [Example I-58, (rac)-N-[1-{3-[5-(Morpholine-4-carbonyl)-1,3-thiazol-2-yl]pyrazin-2-yl}ethyl]-3,5-bis(trifluoromethyl)benzamide], in test [1], the pest or weed control at 1 µg/cm2, 100 g/ha amounted to 100% and the pest or weed control at 5 µg/cm2, 500 g/ha worked out at 90%. The molecule also displayed a mortality at 100 g/ha in test [2] of 100%.
On to `CC(NC(=O)c1cc(Br)cc(OC(F)(F)F)c1)c1nccnc1-c1ccc(Cl)cn1` (stereo not shown) [Example I-22], for which, in test [3], the pest or weed control at 6.4 µg/disc, 20 g/ha worked out at 100% and the pest or weed control at 32 µg/disc, 100 g/ha came to 100%. The mortality at 100 g/ha in test [2] is 100%.
For `CCN(C)C(=O)c1cnc(-c2nc(C)cnc2C(C)NC(=O)c2cc(C(F)(F)F)cc(C(F)(F)F)c2)s1` (racemic) [Example I-152, (rac)-2-(3-{1-[3,5-Bis(trifluoromethyl)benzamido]ethyl}-6-methylpyrazin-2-yl)-N-ethyl-N-methyl-1,3-thiazole-5-carboxamide], in test [3], the pest or weed control at 6.4 µg/disc, 20 g/ha was determined as 100% and the pest or weed control at 32 µg/disc, 100 g/ha was 100%. The mortality at 100 g/ha in test [2] was 100%.
For the molecule `CCS(=O)(=O)c1cc(Cl)cc(C(=O)NC(C)c2nccnc2-n2cc(C#N)cn2)c1` (racemic) [Example I-122, (rac)-3-Chloro-N-{1-[3-(4-cyano-1-pyrazol-1-yl)pyrazin-2-yl]ethyl}-5-(ethanesulfonyl)benzamide], in test [1], the pest or weed control at 1 µg/cm2, 100 g/ha is 90%. The mortality at 100 g/ha in test [2] turned out to be 100%.
On to `CC(NC(=O)c1cc(C(F)(F)F)cc(C(F)(F)F)c1)c1nccnc1-c1ncc(C(=O)N(C)CC#N)s1` (racemic) [Example I-67, (rac)-2-(3-{1-[3,5-Bis(trifluoromethyl)benzamido]ethyl}pyrazin-2-yl)-N-(cyanomethyl)-N-methyl-1,3-thiazole-5-carboxamide], for which the pest or weed control at 32 µg/disc, 100 g/ha in test [3] worked out at 100%. Further, the mortality at 100 g/ha in test [2] was 100%.
With `CC(NC(=O)c1cc(Cl)cc(S(C)(=O)=O)c1)c1nccnc1-c1ncc(C(=O)N(C)CC#N)s1` (racemic) [Example I-77, (rac)-2-(3-{1-[3-Chloro-5-(methanesulfonyl)benzamido]ethyl}pyrazin-2-yl)-N-(cyanomethyl)-N-methyl-1,3-thiazole-5-carboxamide], the pest or weed control at 32 µg/disc, 100 g/ha in test [3] was determined as 100%. In test [2], this molecule gave a mortality at 100 g/ha of 100%.
As for `CC(NC(=O)c1cc(C#N)cc(C(F)(F)F)c1)c1nccnc1-c1ccc(C(F)(F)F)cn1` (racemic) [Example I-41, (rac)-3-Cyano-5-(trifluoromethyl)-N-[1-{3-[5-(trifluoromethyl)pyridin-2-yl]pyrazin-2-yl}ethyl]benzamide], the pest or weed control at 6.4 µg/disc, 20 g/ha in test [3] is 100%. The molecule further yielded a mortality at 100 g/ha in test [2] of 83%.
As for `CC(NC(=O)c1cc(C(F)(F)F)cc(C(F)(F)F)c1)c1nccnc1-n1cc(C(=O)N(C)C(C)C)cn1` (racemic) [Example I-136, (rac)-1-(3-{1-[3,5-Bis(trifluoromethyl)benzamido]ethyl}pyrazin-2-yl)-N-methyl-N-(propan-2-yl)-1H-pyrazole-4-carboxamide], in test [1], the pest or weed control at 1 µg/cm2, 100 g/ha was found to be 100% and the pest or weed control at 5 µg/cm2, 500 g/ha is 100%. Besides, in test [2], the mortality at 100 g/ha was determined as 100%.
`CC(NC(=O)c1cc(Cl)cc(S(=O)(=O)c2ccc(F)cc2)c1)c1nccnc1-n1cc(C#N)cn1` (racemic) [Example I-128, (rac)-3-Chloro-N-{1-[3-(4-cyano-1H-pyrazol-1-yl)pyrazin-2-yl]ethyl}-5-(4-fluorobenzene-1-sulfonyl)benzamide]: in test [1], the pest or weed control at 1 µg/cm2, 100 g/ha was 90% and the pest or weed control at 5 µg/cm2, 500 g/ha was determined as 80%. In test [2], this molecule had a mortality at 100 g/ha of 100%.
Regarding `CC(NC(=O)c1cc(Cl)cc(C(F)(F)F)c1)c1nccnc1-n1cc(C#N)cn1` (racemic) [Example I-105, (rac)-3-Chloro-N-{1-[3-(4-cyano-1H-pyrazol-1-yl)pyrazin-2-yl]ethyl}-5-(trifluoromethyl)benzamide], the pest or weed control at 32 µg/disc, 100 g/ha in test [3] stood at 100%. This molecule yielded a mortality at 100 g/ha in test [2] of 100%.
Turning to `CCN(C)C(=O)c1ccc(-c2nccnc2C(C)NC(=O)c2cc(Cl)cc(OC(F)(F)F)c2)nc1` (racemic) [Example I-36, (rac)-6-(3-{1-[3-Chloro-5-(trifluoromethoxy)benzamido]ethyl}pyrazin-2-yl)-N-ethyl-N-methylpyridine-3-carboxamide], the pest or weed control at 32 µg/disc, 100 g/ha in test [3] was 100%. Besides, the mortality at 100 g/ha in test [2] was 100%.
Turning to `CC(NC(=O)c1cc(Br)cc(C#N)c1)c1nccnc1-n1cc(Cl)cn1` (racemic) [Example I-98, (rac)-3-Bromo-N-{1-[3-(4-chloro-1H-pyrazol-1-yl)pyrazin-2-yl]ethyl}-5-cyanobenzamide], in test [3], the pest or weed control at 6.4 µg/disc, 20 g/ha was found to be 100% and the pest or weed control at 32 µg/disc, 100 g/ha stood at 100%. In test [2], this molecule came in with a mortality at 100 g/ha of 100%.
Regarding `CC(NC(=O)c1cc(C(F)(F)F)cc(C(F)(F)F)c1)c1nccnc1-c1ccc(C(=O)N(C)CC#N)cn1` (racemic) [Example I-39, (rac)-6-(3-{1-[3,5-Bis(trifluoromethyl)benzamido]ethyl}pyrazin-2-yl)-N-(cyanomethyl)-N-methylpyridine-3-carboxamide], the pest or weed control at 32 µg/disc, 100 g/ha in test [3] amounted to 100%. In test [2], this molecule had a mortality at 100 g/ha of 100%.
As for `CC(NC(=O)c1cc(Br)cc(OC(F)(F)F)c1)c1nccnc1-n1cc(C(=O)N(C)C(C)C)cn1` (racemic) [Example I-137, (rac)-1-(3-{1-[3-Bromo-5-(trifluoromethoxy)benzamido]ethyl}pyrazin-2-yl)-N-methyl-N-(propan-2-yl)-1H-pyrazole-4-carboxamide], in test [1], the pest or weed control at 1 µg/cm2, 100 g/ha stood at 100% and the pest or weed control at 5 µg/cm2, 500 g/ha was determined as 100%. The molecule also displayed a mortality at 100 g/ha in test [2] of 100%.
In test [2], `CCN(C)C(=O)c1cnc(-c2ncc(C)nc2[C@H](C)NC(=O)c2cc(C(F)(F)F)nc(C(F)(F)F)c2)s1` [Example I-159, (+)-N-[(1S)-1-(3-(5-[ethyl(methyl)carbamoyl]-1,3-thiazol-2-yl)-6-methylpyrazin-2-yl)ethyl]-2,6-bis(trifluoromethyl)pyridine-4-carboxamide] came in with a mortality at 100 g/ha of 100%.
Same read-out and setting: under `CC(NC(=O)c1cc(Cl)cc(S(=O)(=O)C2CC2)c1)c1nccnc1-n1cc(C#N)cn1` (racemic) [Example I-101, (rac)-3-Chloro-N-{1-[3-(4-cyano-1H-pyrazol-1-yl)pyrazin-2-yl]ethyl}-5-(cyclopropanesulfonyl)benzamide] stands 100%; under `Cc1cnc(-c2ncc(C(=O)N(C)CC3CC3)s2)c(C(C)NC(=O)c2cc(C(F)(F)F)cc(C(F)(F)F)c2)n1` (racemic) [Example I-73, (rac)-2-(3-{1-[3,5-Bis(trifluoromethyl)benzamido]ethyl}-5-methylpyrazin-2-yl)-N-(cyclopropylmethyl)-N-methyl-1,3-thiazole-5-carboxamide], 100%; under `CC(NC(=O)c1cc(C(F)(F)F)cc(C(F)(F)F)c1)c1nccnc1-c1ccc(C(F)(F)F)cn1` (racemic) [Example I-45, (rac)-3,5-Bis(trifluoromethyl)-N-[1-{3-[5-(trifluoromethyl)pyridin-2-yl]pyrazin-2-yl}ethyl]benzamide], 100%.
Same read-out and setting: with `CC(NC(=O)c1cc(Cl)cc(OC(F)(F)F)c1)c1nccnc1-c1ccc(C(F)(F)F)cn1` (racemic) [Example I-47, (rac)-3-Chloro-5-(trifluoromethoxy)-N-[1-{3-[5-(trifluoromethyl)pyridin-2-yl]pyrazin-2-yl}ethyl]benzamide] the figure was 100%.

For orientation: mortality means the share of the test organisms that died.
